In US5716627A, “Skin care compositions containing fatty acid amides, azoles, and retinol or retinyl ester” (Elizabeth Arden Co., Division of Conopco, Inc., priority 1996, dated 1998):
Entries after “also recorded” stand apart in the source; their conditions may differ. Read-outs that look alike come from different tables or passages of the source.

Legend:
TGase I = experiment: Transglutaminase (TGase I) ELISA in cultured keratinocytes, normalized to DNA content (keratinocyte differentiation); assay type: cell-based, human; conditions: for Mean TGase/DNA X 10^-4 ± S.D.: n = 3; for mean TGase/DNA × 10^4 ± s.d: Table 3B
Description: Human keratinocytes, isolated from neonatal foreskin by trypsin treatment were grown in Dulbecco Modification Eagle (DME) Hams F12 (1:1) medium/10% fetal calf serum in the presence of irradiated 3T3 mouse fibroblasts for establishing dividing keratinocyte colonies. Cells were grown under the above condition until their second passage and kept frozen for future use. Frozen second passage keratinocytes were thawed and plated into the above medium and grown for five days before they were switched to a serum-free MCDB 153-based medium keratinocyte growth medium (KGM) from Clonetics Corporation, San Diego, Calif., containing 0.15 mM Ca, or keratinocyte serum-free media (KSFM) from GIBCO containing 0.09 mM Ca). On day 7, when the cells were 80-90% confluent, they were trypsinized and plated in the serum-free medium for the various experiments.
During the process of terminal differentiation in the epidermis, a 15 nm thick layer of protein, known as the cornified envelope (CE) is formed on the inner surface of the cell periphery. The CE is composed of numerous distinct proteins which have been cross-linked together by the formation of N^ε -(γ-glutamyl) lysine isodipeptide bonds catalyzed by the action of at least two different transglutaminases (TGases) expressed in the epidermis. TGase I is expressed in abundance in the differentiated layers of the epidermis, especially the granular layer, but is absent in the undifferentiated basal epidermis. Thus TGase I is a useful marker of epidermal keratinocyte differentiation with high TGase I levels indicating a more differentiated state. An ELISA based TGase I assay, using a TGase I antibody, was used to assess the state of differentiation of the cultured keratinocytes in the examples that follow.
Keratinocytes (cultured as described above) were plated in 96 well plates at a density of 3,000 cells per well in 200 μl media. After incubation for four days the media was changed to media containing test compounds (six replicates per test). The cells were cultured for a further 72 hours after which time the media was aspirated and the plates stored at -70° C. Plates were removed from the freezer, and the cells washed with PBS. 100 μl sterile water was added and the cells were freeze fractured by freezing at -70° C. then thawing. The cells were incubated for one hour at room temperature (R/T) with PBS/3% BSA (wash buffer, bovine serum albumin), then rinsed with a fresh aliquot of wash buffer. Cells were incubated with 50 μl of primary antibodies monoclonal anti-human transglutaminase (IgG) obtained from Amersham (mouse) diluted 1:300 in wash buffer for one hour, 37° C. then rinsed two times with wash buffer. Cells were then incubated with 50 μl of secondary antibody (Feb fragment, peroxidase conjugated anti-mouse IgG obtained from Amersham) diluted 1:200 in wash buffer for one hour at 37° C., then rinsed two times with wash buffer. Cells were incubated with substrate solution (4 mg o-phenylene diamine and 3.3 μl 30% H2 O2 in 10 ml 0.1M citrate buffer pH 5.0) for five minutes, R/T, in darkness (under aluminum foil). The reaction was stopped by the addition of 50 μl 4N H2 SO4. The absorbance of samples was read at 492 nm in the plate reader. Out of the six replicates, four were treated with both antibodies, two were treated only with the secondary antibody (i.e., to determine background binding of enzyme conjugated Ab). TGase levels were determined by subtracting background from the readings from each treatment and determining mean ±s.d. for the replicates exposed to both Ab.
The level of TGase-1 detected after treatment of the cells could be influenced by cell number, i.e., the greater the number of cells the greater the level of TGase-1 detected. The level of TGase-1 was normalized to DNA content of the cells in the same well thus eliminating variation due to differences in cell number. […]

Human keratinocytes = experiment: 3H-thymidine incorporation by cultured keratinocytes (keratinocyte proliferation); assay type: cell-based; conditions: for activation at 0.0025 µM: 2.5×10^-9 M RA
Description: Human keratinocytes, isolated from neonatal foreskin by trypsin treatment were grown in Dulbecco Modification Eagle (DME) Hams F12 (1:1) medium/10% fetal calf serum in the presence of irradiated 3T3 mouse fibroblasts for establishing dividing keratinocyte colonies. Cells were grown under the above condition until their second passage and kept frozen for future use. […] On day 7, when the cells were 80-90% confluent, they were trypsinized and plated in the serum-free medium for the various experiments.
The incorporation of ^3 H-thymidine by cultured keratinocytes was used as an assay of keratinocyte proliferation. Thymidine is one of four deoxynucleosides which are the monomeric units of DNA, the universal library of genetic information in the animal kingdom. Prior to cell division of a somatic cell such as a keratinocyte, the complete genome of the cell undergoing cell division is replicated. This involves large scale DNA synthesis by the cell and enables both daughter cells to receive identical copies of the genetic material. When ^3 H-thymidine is included in the culture media of keratinocytes which are synthesizing DNA in preparation for cell division then the labelled nucleoside is incorporated into the newly synthesized DNA. The extent of incorporation of ^3 H-thymidine into a population of cells is proportional to the rate of DNA synthesis by this population of cells and therefore an indication of their cellular proliferation.
Keratinocytes (that were cultured as described above) were plated in 24 well plates at a density of 40,000 cells per well in 1 ml media. After incubation for four days or until the cells were 60-70% confluent, the media was changed. Test compounds were added (in triplicate) to the wells 24 hours after the media change, and four hours later 1 μCi ^3 H-Thymidine in 50 μl media was added per well. Cells were incubated for a further 24 hours. Media was removed from the cells, 10% ice cold trichloroacetic acid (TCA) added and plates were incubated on ice for 30 minutes. Cells were washed five times with 5% TCA and allowed to dissolve in 500 μl 0.1M NaOH for at least one hour (usually overnight). The preparations were neutralized with 0.1M HCl; 50 μl of the cell preparation was used to determine total protein content. Disintegrations per minute (DPM) from ^3 H labelling of DNA was determined by liquid scintillation counting of 900 μl of the cell preparation. Thymidine incorporation results were expressed as DPM/μg protein.

[1] = Examples 1-4, overall conclusion

In the case of `CC1=C(/C=C/C(C)=C/C=C/C(C)=C/C(=O)O)C(C)(C)CCC1` [RA, retinoic acid], the “effect on transglutaminase level / keratinocyte differentiation (in words)” value (TGase I; Example 1, 2.5×10^-7 M, 2.5×10^-8 M and 2.5×10^-9 M) is reported as “decreased keratinocyte differentiation over both the ethanol control and each of the retinol treatments; also recorded: dose dependent”, the “effect on keratinocyte TG1 level / differentiation (in words)” value (TGase I; Example 2, 2.5×10^-8 M RA or retinol, 10^-8 M LAMEA, 10^-8 M bifonazole, 72 hour) is reported as “very effective at repressing keratinocyte TG1 levels” and the “effect on keratinocyte TG1 level / differentiation (in words)” value (TGase I; Example 3, 2.5×10^-7 M RA, 2.5×10^-9 M retinol with 10^-8 M LADEA and/or climbazole, 72 hour) is reported as “very effective at repressing keratinocyte TG1 levels”. The “effect on keratinocyte differentiation (in words)” value (TGase I; [1]) was “decreased keratinocyte differentiation”, the “TGase/DNA (% Control)” value (TGase I; Table 1B, 2.5 × 10^-7 M, 72 hours, 0.25 µM) was 7% and the “Mean TGase/DNA X 10^-4 ± S.D.” value (TGase I; Table 1B, 2.5 × 10^-7 M, 72 hours) was 0.16 ± 0.11 X 10^-4. The “TGase/DNA (% Control)” value (TGase I; Table 1B, 2.5 × 10^-8 M, 72 hours, 0.025 µM) was 55%, the “Mean TGase/DNA X 10^-4 ± S.D.” value (TGase I; Table 1B, 2.5 × 10^-8 M, 72 hours) was 1.34 ± 0.40 X 10^-4 and the “TGase/DNA (% Control)” value (TGase I; Table 1B, 2.5 × 10^-9 M, 72 hours, 0.0025 µM) was 77%. For the same molecule, the “Mean TGase/DNA X 10^-4 ± S.D.” value (TGase I; Table 1B, 2.5 × 10^-9 M, 72 hours) was 1.87 ± 0.49 X 10^-4, the “TGase/DNA (% Control)” value (TGase I; Table 2B and Example 2B text, 2.5×10^-8 M RA or retinol, 10^-8 M LAMEA, 10^-8 M bifonazole where named, 72 hour) was 13% and the “mean TGase/DNA × 10^-4 ± s.d” value (TGase I; Table 2B, 2.5 × 10^8 M [sic] RA or ROH, 10^8 M LA-MEA, 10^8 M Bifonazole where named, 72 hour, n = 6) was 0.017 ± 0.010 × 10^-4. For the same molecule, the “TGase/DNA (% Control)” value (TGase I; Table 3B and Example 3B, 2.5×10^-9 M RA or ROH, with 10^-8 M LADEA and/or 10^-8 M climbazole where named, 72 hour) was 55%, the “TGase/DNA (% Control)” value (TGase I; Table 3B and Example 3B, RA at 2.5×10^-7 M (table: 2.5 × 10^7 M), 72 hour, 0.25 µM) was 29% and the “mean TGase/DNA × 10^4 ± s.d” value (TGase I; 2.5 × 10^9 M [sic] RA or ROH, with 10^8 M LA-DEA and/or 10^8 M Climbazole where named, 72 hour, n = 6) was 0.84 ± 0.59 × 10^4. The “mean TGase/DNA × 10^4 ± s.d” value (TGase I; RA at 2.5 × 10^7 M [sic], 72 hour, n = 6) was 0.44 ± 0.71 × 10^4, the “effect on keratinocyte proliferation (in words)” value (Human keratinocytes; Example 1, 2.5×10^-7 M, 2.5×10^-8 and 2.5×10^-9 M, vs ethanol control and retinol) was “significantly increased keratinocyte proliferation over both the ethanol control and each of the 2.5×10^-7 M, 2.5×10^-8 M and 2.5×10^-9 M retinol treatments; also recorded: dose dependant manner” and the “effect on keratinocyte proliferation (in words)” value (Human keratinocytes; [1]) was “increased keratinocyte proliferation”. The activity at 0.25 µM (Human keratinocytes; Homo sapiens, Keratinocyte, 24 h, Table 1A, 2.5 × 10^-7 M, 24 hours, read-out: Thymidine incorporation (% control)) was 118%, the activity at 0.025 µM (Human keratinocytes; Homo sapiens, Keratinocyte, 24 h, Table 1A, 2.5 × 10^-8 M, 24 hours, read-out: Thymidine incorporation (% control)) was 128% and the activity at 0.0025 µM (Human keratinocytes; Homo sapiens, Keratinocyte, 24 h, Table 1A, 2.5 × 10^-9 M, 24 hours, read-out: Thymidine incorporation (% control)) was 122%. The activity at 0.0025 µM (Human keratinocytes; Homo sapiens, Keratinocyte, 24 h, Table 2A, 2.5 × 10^-9 M RA or ROH, with 10^-8 M LADEA and/or 10^-9 M Bifonazole where named, 24 hours, read-out: Thymidine incorporation (% control)) was 127%, the activity at 0.25 µM (Human keratinocytes; Homo sapiens, Keratinocyte, 24 h, Table 3A, RA at 2.5 × 10^7 M [sic], read-out: Thymidine incorporation (% control)) was 130% and the activation at 0.0025 µM (Human keratinocytes; Homo sapiens, Keratinocyte, read-out: increase in keratinocyte thymidine incorporation / proliferation over the ethanol control, Example 2, or 2.5×10^-9 M retinol+10^-8 M linoleamide-DEA+10^-9 M bifonazole) was 27%. For the same molecule, the activation at 0.25 µM (Human keratinocytes; Homo sapiens, Keratinocyte, read-out: increase in keratinocyte thymidine incorporation / proliferation over the ethanol control, Example 3, 2.5×10^-7 M RA, or 2.5×10^-8 M retinol+10^-8 M linoleamide-DEA+10^-9 M climbazole) was 30%, the activation at 0.0025 µM (Human keratinocytes; Homo sapiens, Keratinocyte, read-out: increase in keratinocyte thymidine incorporation / proliferation over the ethanol control, Example 4, or 2.5×10^-9 M retinol+10^-8 M linoleamide-MEA+10^-8 M clotrimazole) was 28% and the “mean Thymidine incorp./μg protein ± s.d” value (Human keratinocytes; Table 1A, 2.5 × 10^-7 M, 24 hours, n = 3) was 2475 ± 116 DPM/μg protein. The “mean Thymidine incorp./μg protein ± s.d” value (Human keratinocytes; Table 1A, 2.5 × 10^-8 M, 24 hours, n = 3) was 2686 ± 72 DPM/μg protein, the “mean Thymidine incorp./μg protein ± s.d” value (Human keratinocytes; Table 1A, 2.5 × 10^-9 M, 24 hours, n = 3) was 2556 ± 80 DPM/μg protein and the “mean Thymidine incorp. μg protein ± s.d” value (Human keratinocytes; Table 2A, 2.5 × 10^-9 M RA or ROH, with 10^-8 M LADEA and/or 10^-9 M Bifonazole where named, 24 hours, n = 3) was 5569 ± 248 DPM/μg protein. For the same molecule, the “mean Thymidine incorp/μg protein ± s.d” value (Human keratinocytes; Table 3A, RA at 2.5 × 10^7 M [sic], n = 3) was 4845 ± 95 DPM/μg protein.
